# According to patent US10071068B2, “Sustained release oral dosage forms of an R-baclofen prodrug” (XENOPORT, INC., priority 2009, dated 2018):
# Columns and labels:
# [1] = FLODEX powder flowability (Flodex); type: physicochemical; settings: for Flowdex: crystalline compound (1) lot, Table 2; for Flodex: neat powder, listed as Compound (1)
# Text: The flow of dry powders was characterized using a FLODEX™ Powder Flowability Index Test Instrument (Hanson Research Corporation, Chatsworth, Calif.). The instrument was equipped with a cylindrical metal reservoir, which holds the test powder prior to flow testing. The cylindrical reservoir has an inside diameter of 5.7 cm and a length of […]. The bottom end of the reservoir can be closed with removable metal discs. Each disc has a round orifice centered in the disc. Orifice diameters range from 4 mm to 10 mm in 1 mm increments, and from 10 mm to 34 mm in 2 mm increments. Prior to flow testing, the orifice is blocked. Powder is then placed over the blocked orifice. When the orifice is unblocked, powder can flow through the orifice under the force of gravity if the orifice diameter is sufficiently large. Powder that flows through small orifices is considered to have flow properties useful for tableting. For example, a Flodex measurement (Flodex) of less than about 24 mm is […] high-speed tableting operations at commercial scale. A Flodex less than about 20 mm is useful for high-speed tableting operations. A Flodex of 18 mm or less is considered especially useful for high speed tableting operations.
# The Flodex is determined by first gently filling the reservoir with approximately 70 cc of test powder while the orifice at the bottom is blocked, while avoiding severe piling, and without vibrating or tapping the powder bed. Next, the orifice is unblocked. This can be accomplished by opening a shutter that is supplied with the instrument. Alternatively, if a shutter is not used, the powder-filled reservoir fitted with a disc can be set on a dry, flat surface to block the orifice. Then, slowly and evenly, the reservoir is lifted to allow the powders to flow. In either procedure, if the powder flows through the orifice, a clear channel is left within the powder bed. […] The flow test is conducted with various orifice sizes until the minimum orifice size for good flow is identified, which is referred to as the Flodex.
# [2] = Particle size of compound (1) lots, wet and dry method; type: physicochemical
# [3] = Bulk density, tap density and compressibility of powders; type: physicochemical; settings: major component of Example 15 blend
# [4] = dosed either orally or directly into the colon of a mammal; cited from earlier work
# [5] = clinical trials (Gerson et al. 2009); cited from earlier work
Structure (SMILES),Flowdex [1] [mm],Flodex ([1]; Lot 71) [mm],"Particle size, Dry method, dv0.5 [2] [μm]","Particle size, Dry method, dv0.9 [2] [μm]","Particle size, Wet method, dv0.5 [2] [μm]","Particle size, Wet method, dv0.9 [2] [μm]",Flodex ([1]; Lot 70) [mm],Bulk Density [3] [g/cc],bioavailability as R-baclofen [4],reflux episodes [5],Flodex ([1]; Lot 4) [mm]
"CC(C)C(=O)O[C@@H](OC(=O)NC[C@H](CC(=O)O)c1ccc(Cl)cc1)C(C)C [Lot 71, (3R)-4-{[(1S)-2-Methyl-1-(2-methylpropanoyloxy)propoxy]carbonylamino}-3-(4-chlorophenyl)butanoic acid]",26,26,17.64,107.48,22.17,63.02,,,,,
"CC(C)C(=O)O[C@@H](OC(=O)NC[C@H](CC(=O)O)c1ccc(Cl)cc1)C(C)C [Lot 70, (3R)-4-{[(1S)-2-Methyl-1-(2-methylpropanoyloxy)propoxy]carbonylamino}-3-(4-chlorophenyl)butanoic acid]",26,,27.53,106.87,4.81,37.2,26,,,,
"CC(C)C(=O)O[C@@H](OC(=O)NC[C@H](CC(=O)O)c1ccc(Cl)cc1)C(C)C [Compound (1), (3R)-4-{[(1S)-2-Methyl-1-(2-methylpropanoyloxy)propoxy]carbonylamino}-3-(4-chlorophenyl)butanoic acid]",,,,,,,,0.15,high bioavailability,reduce reflux episodes,
"CC(C)C(=O)O[C@@H](OC(=O)NC[C@H](CC(=O)O)c1ccc(Cl)cc1)C(C)C [Lot 4, (3R)-4-{[(1S)-2-Methyl-1-(2-methylpropanoyloxy)propoxy]carbonylamino}-3-(4-chlorophenyl)butanoic acid]",23,,11.09,102,3.35,40.47,,,,,24
